The subject of the test is 3WJ (PAGE) (DNA, junction) CGGAACGGCACTCG/CGAGTGCAGCGTGG/CCACGCTCGTTCCG
Briefly: PAGE junction assembly. As to conditions: 10 mM NaCl, 1x TB.

Regarding `C(=Nc1ccc(Cc2ccc(N=Cc3ccccn3)cc2)cc1)c1ccccn1.C(=Nc1ccc(Cc2ccc(N=Cc3ccccn3)cc2)cc1)c1ccccn1.C(=Nc1ccc(Cc2ccc(N=Cc3ccccn3)cc2)cc1)c1ccccn1.[Ni+2].[Ni+2]`, the binding result is listed as “yes”. `[Pt+2].[Pt+2].c1cncc(Oc2ccc(Oc3cccnc3)cc2)c1.c1cncc(Oc2ccc(Oc3cccnc3)cc2)c1.c1cncc(Oc2ccc(Oc3cccnc3)cc2)c1.c1cncc(Oc2ccc(Oc3cccnc3)cc2)c1`: the binding entry (0.1 to 5 equivalents) is given as “yes”.
